# Source: patent US5604234A, “Substituted thiol macrolactam immunomodulators” (Abbott Laboratories, priority 1995, dated 1997)
# System: human mixed lymphocyte reaction (MLR)
# Test: human mixed lymphocyte reaction (MLR), serum free variation
# Format: cell-based
# Conditions: Homo sapiens, Lymphocyte, serum-free medium AIM V, Table 3
# Method: In vitro Assay of Biological Activity (Serum Free MLR)
# The in viitro immunosuppressant activity of the compounds of the present invention can also be determined using a variation of the human mixed lymphocyte reaction (MLR) assay described by Kino, T. et al. in Transplantation Proceedings, XIX(5):36-39, Suppl. 6 (1987). In this assay, the cell culture was performed in a serum-free medium, AIM V (GibcoBRL Life Technologies, Grand Island, N.Y.), instead of the usual RPMI 1640 plus 10% heat-inactivated fetal bovine serum medium. The final cell concentrations of the responder and stimulator peripheral blood mononuclear cells were, respectively, 5×10^5/mL and 2×10^6/mL of cells pooled from four donors.
row,IC50 [nM],SMILES
1,0.1,CC[C@@H]1/C=C(\C)C[C@H](C)C[C@H](OC)[C@H]2O[C@@](O)(C(=O)C(=O)N3CCCC[C@H]3C(=O)O[C@H](/C(C)=C/[C@@H]3CC[C@H](SC(=O)N(C)C)[C@H](OC)C3)[C@H](C)[C@@H](O)CC1=O)[C@H](C)C[C@@H]2OC [Example 96]
2,8.7,CC[C@@H]1/C=C(\C)C[C@H](C)C[C@H](OC)[C@H]2O[C@@](O)(C(=O)C(=O)N3CCCC[C@H]3C(=O)O[C@H](/C(C)=C/[C@@H]3CC[C@H](SC(=O)NCC(=O)OCc4ccc(OC)cc4)[C@H](OC)C3)[C@H](C)[C@@H](O)CC1=O)[C@H](C)C[C@@H]2OC [Example 99]
3,0.04,CCC1C=C(C)CC(C)CC(OC)C2OC(O)(C(=O)C(=O)N3CCCCC3C(=O)OC(C(C)=CC3CCC(SCCC(=O)N4CCOCC4)C(OC)C3)C(C)C(O)CC1=O)C(C)CC2OC (stereo not shown) [Example 23]
4,0.61,CCC(=O)S[C@H]1CC[C@@H](/C=C(\C)[C@H]2OC(=O)[C@@H]3CCCCN3C(=O)C(=O)[C@]3(O)O[C@H]([C@@H](OC)C[C@@H](C)C/C(C)=C/[C@@H](CC)C(=O)C[C@H](O)[C@H]2C)[C@@H](OC)C[C@H]3C)C[C@H]1OC [Example 88]
5,29.2,"CC[C@@H]1/C=C(\C)C[C@H](C)C[C@H](OC)[C@H]2O[C@@](O)(C(=O)C(=O)N3CCCC[C@H]3C(=O)O[C@H](/C(C)=C/[C@@H]3CC[C@H]([S+]([O-])CCC(=O)OCc4ccccc4)[C@H](OC)C3)[C@H](C)[C@@H](O)CC1=O)[C@H](C)C[C@@H]2OC (single isomer, unassigned) [Example 62]"
6,2.5,CCOC(CNC(=O)S[C@H]1CC[C@@H](/C=C(\C)[C@H]2OC(=O)[C@@H]3CCCCN3C(=O)C(=O)[C@]3(O)O[C@H]([C@@H](OC)C[C@@H](C)C/C(C)=C/[C@@H](CC)C(=O)C[C@H](O)[C@H]2C)[C@@H](OC)C[C@H]3C)C[C@H]1OC)OCC [Example 104]
7,8.7,"CC[C@@H]1/C=C(\C)C[C@H](C)C[C@H](OC)[C@H]2O[C@@](O)(C(=O)C(=O)N3CCCC[C@H]3C(=O)O[C@H](/C(C)=C/[C@@H]3CC[C@H]([S+]([O-])CC(=O)OCc4ccccc4)[C@H](OC)C3)[C@H](C)[C@@H](O)CC1=O)[C@H](C)C[C@@H]2OC (single isomer, unassigned) [Example 54]"
8,3.5,CC[C@@H]1/C=C(\C)C[C@H](C)C[C@H](OC)[C@H]2O[C@@](O)(C(=O)C(=O)N3CCCC[C@H]3C(=O)O[C@H](/C(C)=C/[C@@H]3CC[C@H](SC(=O)CO)[C@H](OC)C3)[C@H](C)[C@@H](O)CC1=O)[C@H](C)C[C@@H]2OC [Example 125]
9,31.2,CCC1C=C(C)CC(C)CC(OC)C2OC(O)(C(=O)C(=O)N3CCCCC3C(=O)OC(C(C)=CC3CCC(SCCC(=O)OCCCS(=O)(=O)O)C(OC)C3)C(C)C(O)CC1=O)C(C)CC2OC (stereo not shown) [Example 17]
10,2.6,CC[C@@H]1/C=C(\C)C[C@H](C)C[C@H](OC)[C@H]2O[C@@](O)(C(=O)C(=O)N3CCCC[C@H]3C(=O)O[C@H](/C(C)=C/[C@@H]3CC[C@H](SC(=O)CNC(N)=O)[C@H](OC)C3)[C@H](C)[C@@H](O)CC1=O)[C@H](C)C[C@@H]2OC [Example 121]
11,2.9,CCC1C=C(C)CC(C)CC(OC)C2OC(O)(C(=O)C(=O)N3CCCCC3C(=O)OC(C(C)=CC3CCC(SCCC(=O)O)C(OC)C3)C(C)C(O)CC1=O)C(C)CC2OC (stereo not shown) [Example 19]
12,0.02,CCC1C=C(C)CC(C)CC(OC)C2OC(O)(C(=O)C(=O)N3CCCCC3C(=O)OC(C(C)=CC3CCC(SCCC(N)=O)C(OC)C3)C(C)C(O)CC1=O)C(C)CC2OC (stereo not shown) [Example 22]
13,6.1,CCOC(=O)CC[S+]([O-])[C@H]1CC[C@@H](/C=C(\C)[C@H]2OC(=O)[C@@H]3CCCCN3C(=O)C(=O)[C@]3(O)O[C@H]([C@@H](OC)C[C@@H](C)C/C(C)=C/[C@@H](CC)C(=O)C[C@H](O)[C@H]2C)[C@@H](OC)C[C@H]3C)C[C@H]1OC (stereo partly shown) [Example 60]
14,8.1,CC[C@@H]1/C=C(\C)C[C@H](C)C[C@H](OC)[C@H]2O[C@@](O)(C(=O)C(=O)N3CCCC[C@H]3C(=O)O[C@H](/C(C)=C/[C@@H]3CC[C@H]([S+]([O-])CC(=O)OCc4ccccc4)[C@H](OC)C3)[C@H](C)[C@@H](O)CC1=O)[C@H](C)C[C@@H]2OC (stereo partly shown) [Example 55]

# Continued, molecule first:
row,SMILES,IC50 [nM]
1,CCC1C=C(C)CC(C)CC(OC)C2OC(O)(C(=O)C(=O)N3CCCCC3C(=O)OC(C(C)=CC3CCC(SCCC(=O)OC(C)C)C(OC)C3)C(C)C(O)CC1=O)C(C)CC2OC (stereo not shown) [Example 20],12.7
2,CCC1C=C(C)CC(C)CC(OC)C2OC(O)(C(=O)C(=O)N3CCCCC3C(=O)OC(C(C)=CC3CCC(SCC(=O)OCCN(C)C)C(OC)C3)C(C)C(O)CC1=O)C(C)CC2OC (stereo not shown) [Example 36],24.2
3,CC[C@@H]1/C=C(\C)C[C@H](C)C[C@H](OC)[C@H]2O[C@@](O)(C(=O)C(=O)N3CCCC[C@H]3C(=O)O[C@H](/C(C)=C/[C@@H]3CC[C@H]([S+]([O-])CCC(=O)OCc4ccccc4)[C@H](OC)C3)[C@H](C)[C@@H](O)CC1=O)[C@H](C)C[C@@H]2OC (stereo partly shown) [Example 63],15
4,CCC(CC)OC(=O)CCSC1CCC(C=C(C)C2OC(=O)C3CCCCN3C(=O)C(=O)C3(O)OC(C(OC)CC(C)CC(C)=CC(CC)C(=O)CC(O)C2C)C(OC)CC3C)CC1OC (stereo not shown) [Example 21],5.4
5,CCCNC(=O)S[C@H]1CC[C@@H](/C=C(\C)[C@H]2OC(=O)[C@@H]3CCCCN3C(=O)C(=O)[C@]3(O)O[C@H]([C@@H](OC)C[C@@H](C)C/C(C)=C/[C@@H](CC)C(=O)C[C@H](O)[C@H]2C)[C@@H](OC)C[C@H]3C)C[C@H]1OC [Example 92],0.26
6,"CC[C@@H]1/C=C(\C)C[C@H](C)C[C@H](OC)[C@H]2O[C@@](O)(C(=O)C(=O)N3CCCC[C@H]3C(=O)O[C@H](/C(C)=C/[C@@H]3CC[C@H]([S+]([O-])CCC(=O)N(C)O)[C@H](OC)C3)[C@H](C)[C@@H](O)CC1=O)[C@H](C)C[C@@H]2OC (single isomer, unassigned) [Example 69]",6.24
7,CCC1C=C(C)CC(C)CC(OC)C2OC(O)(C(=O)C(=O)N3CCCCC3C(=O)OC(C(C)=CC3CCC(SCC(=O)OCCOC)C(OC)C3)C(C)C(O)CC1=O)C(C)CC2OC (stereo not shown) [Example 35],27.1
8,CCC1C=C(C)CC(C)CC(OC)C2OC(O)(C(=O)C(=O)N3CCCCC3C(=O)OC(C(C)=CC3CCC(SCCC(=O)OCC(F)(F)F)C(OC)C3)C(C)C(O)CC1=O)C(C)CC2OC (stereo not shown) [Example 12],1.7
9,CCC1C=C(C)CC(C)CC(OC)C2OC(O)(C(=O)C(=O)N3CCCCC3C(=O)OC(C(C)=CC3CCC(SCC(=O)O)C(OC)C3)C(C)C(O)CC1=O)C(C)CC2OC (stereo not shown) [Example 30],9.1
10,CC[C@@H]1/C=C(\C)C[C@H](C)C[C@H](OC)[C@H]2O[C@@](O)(C(=O)C(=O)N3CCCC[C@H]3C(=O)O[C@H](/C(C)=C/[C@@H]3CC[C@H]([S+]([O-])CCO)[C@H](OC)C3)[C@H](C)[C@@H](O)CC1=O)[C@H](C)C[C@@H]2OC (stereo partly shown) [Example 50],0.24
11,CC[C@@H]1/C=C(\C)C[C@H](C)C[C@H](OC)[C@H]2O[C@@](O)(C(=O)C(=O)N3CCCC[C@H]3C(=O)O[C@H](/C(C)=C/[C@@H]3CC[C@H](S(=O)(=O)CC(=O)OCc4ccccc4)[C@H](OC)C3)[C@H](C)[C@@H](O)CC1=O)[C@H](C)C[C@@H]2OC [Example 56],8.1
12,CC[C@@H]1/C=C(\C)C[C@H](C)C[C@H](OC)[C@H]2O[C@@](O)(C(=O)C(=O)N3CCCC[C@H]3C(=O)O[C@H](/C(C)=C/[C@@H]3CC[C@H](S(=O)(=O)c4ccc(O)cc4)[C@H](OC)C3)[C@H](C)[C@@H](O)CC1=O)[C@H](C)C[C@@H]2OC [Example 49],2.5
13,CCC1C=C(C)CC(C)CC(OC)C2OC(O)(C(=O)C(=O)N3CCCCC3C(=O)OC(C(C)=CC3CCC(SCC(=O)OCCOCc4ccccc4)C(OC)C3)C(C)C(O)CC1=O)C(C)CC2OC (stereo not shown) [Example 37],16.4
14,CCC1C=C(C)CC(C)CC(OC)C2OC(O)(C(=O)C(=O)N3CCCCC3C(=O)OC(C(C)=CC3CCC(SCC(=O)OCc4ccccc4)C(OC)C3)C(C)C(O)CC1=O)C(C)CC2OC (stereo not shown) [Example 27],3.7
15,CC[C@@H]1/C=C(\C)C[C@H](C)C[C@H](OC)[C@H]2O[C@@](O)(C(=O)C(=O)N3CCCC[C@H]3C(=O)O[C@H](/C(C)=C/[C@@H]3CC[C@H]([S+]([O-])c4ccc(O)cc4)[C@H](OC)C3)[C@H](C)[C@@H](O)CC1=O)[C@H](C)C[C@@H]2OC (stereo partly shown) [Example 48],0.9
16,CC[C@@H]1/C=C(\C)C[C@H](C)C[C@H](OC)[C@H]2O[C@@](O)(C(=O)C(=O)N3CCCC[C@H]3C(=O)O[C@H](/C(C)=C/[C@@H]3CC[C@H](S(=O)(=O)CCCO)[C@H](OC)C3)[C@H](C)[C@@H](O)CC1=O)[C@H](C)C[C@@H]2OC [Example 53],0.04
17,CCC1C=C(C)CC(C)CC(OC)C2OC(O)(C(=O)C(=O)N3CCCCC3C(=O)OC(C(C)=CC3CCC(SCC(=O)OC)C(OC)C3)C(C)C(O)CC1=O)C(C)CC2OC (stereo not shown) [Example 28],1.6
18,CC[C@@H]1/C=C(\C)C[C@H](C)C[C@H](OC)[C@H]2O[C@@](O)(C(=O)C(=O)N3CCCC[C@H]3C(=O)O[C@H](/C(C)=C/[C@@H]3CC[C@H](SC(=O)[C@H](C)O)[C@H](OC)C3)[C@H](C)[C@@H](O)CC1=O)[C@H](C)C[C@@H]2OC [Example 123],2.8

# Same assay, conditions: Lymphocyte, serum-free medium AIM V, Table 3
row,SMILES,IC50 [nM]
1,CC[C@@H]1/C=C(\C)C[C@H](C)C[C@H](OC)[C@H]2O[C@@](O)(C(=O)C(=O)N3CCCC[C@H]3C(=O)O[C@H](/C(C)=C/[C@@H]3CC[C@H](SC(=O)NCC(=O)OCC[Si](C)(C)C)[C@H](OC)C3)[C@H](C)[C@@H](O)CC1=O)[C@H](C)C[C@@H]2OC [Example 100],5.8

# Same assay, conditions: serum-free medium AIM V, Table 3
row,SMILES,IC50 [nM]
1,"CC[C@@H]1/C=C(\C)C[C@H](C)C[C@H](OC)[C@H]2O[C@@](O)(C(=O)C(=O)N3CCCC[C@H]3C(=O)O[C@H](/C(C)=C/[C@@H]3CC[C@H](SC(=O)C(C)NC(C)=O)[C@H](OC)C3)[C@H](C)[C@@H](O)CC1=O)[C@H](C)C[C@@H]2OC (single isomer, unassigned) [Example 117B]",2.5
